Results: PubChem BioAssay (NCI)
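Each compound was tested at five concentrations against cells in 96-well plates for 48 hours. Definition used: TGI = concentration required for complete inhibition of growth.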

How the values were obtained:
Assay in all cases: NCI-60 cell line screen, 48 h
BT-549 breast = tested on: BT-549 breast
SF-268 CNS = tested on: SF-268 CNS
HCC-2998 colon = tested on: HCC-2998 colon
HCT-15 colon = tested on: HCT-15 colon
NCI-H522 lung = tested on: NCI-H522 lung
HL-60(TB) leukemia = tested on: HL-60(TB) leukemia
DU-145 prostate = tested on: DU-145 prostate
SNB-75 CNS = tested on: SNB-75 CNS
OVCAR-5 ovarian = tested on: OVCAR-5 ovarian
NCI-H226 lung = tested on: NCI-H226 lung
MCF7 breast = tested on: MCF7 breast
M14 melanoma = tested on: M14 melanoma
EKVX NSCLC = tested on: EKVX NSCLC
SNB-19 CNS = tested on: SNB-19 CNS
UO-31 renal = tested on: UO-31 renal
CAKI-1 renal = tested on: CAKI-1 renal
HOP-92 NSCLC = tested on: HOP-92 NSCLC
RPMI-8226 leukemia = tested on: RPMI-8226 leukemia

Row | Compound | TGI (BT-549 breast) [µM] | TGI (SF-268 CNS) [µM] | TGI (HCC-2998 colon) [µM] | TGI (HCT-15 colon) [µM] | TGI (NCI-H522 lung) [µM] | TGI (HL-60(TB) leukemia) [µM] | TGI (DU-145 prostate) [µM] | TGI (SNB-75 CNS) [µM] | TGI (OVCAR-5 ovarian) [µM] | TGI (NCI-H226 lung) [µM] | TGI (MCF7 breast) [µM] | TGI (M14 melanoma) [µM] | TGI (EKVX NSCLC) [µM] | TGI (SNB-19 CNS) [µM] | TGI (UO-31 renal) [µM] | TGI (CAKI-1 renal) [µM] | TGI (HOP-92 NSCLC) [µM] | TGI (RPMI-8226 leukemia) [µM]
1 | Cn1c(-c2cccs2)cc(-c2cccs2)c1-c1cccs1 | > 100 | > 100 | > 100 | > 100 | > 93.5 | > 100 | > 100 | > 100 | > 100 | > 100 | > 100 | > 100 | > 100 | > 100 | > 100 | > 100 | > 100 | > 100
2 | COc1nn(Cc2ccccn2)c2ccc([N+](=O)[O-])cc12 | > 100 | > 100 | > 100 | > 100 | > 100 | 64.1 | > 100 | 93 | > 100 | > 100 | > 100 | > 100 | > 100 | > 100 | > 100 | > 100 | 84.2 | > 100
3 | CC(=O)Nc1ccc(-c2nc3ccccc3s2)cc1Br | > 100 | > 100 | > 100 | > 100 | > 100 | > 100 | > 91.4 | 78 | – | > 94.7 | > 100 | > 100 | > 97.1 | > 93.4 | > 100 | > 88.1 | > 100 | > 100
4 | CC(C)OC(=O)c1ccc(NCC2=CC(=O)C=CC2=O)cc1 | 26.1 | 26.1 | 38.2 | 25.5 | 3.27 | 5.24 | 35.8 | 76.3 | 38.9 | > 100 | 27.3 | 28.3 | 31.7 | > 100 | 21.8 | 11.1 | 8.83 | > 24.8
5 | COC(=O)C1=CC2C(=O)c3ccccc3C1(c1ccccc1)N2C1CCCCC1 (stereo not given) | 79.7 | > 100 | 30.1 | > 100 | 82.3 | > 100 | > 100 | > 100 | > 100 | 84.1 | 36.8 | > 100 | > 100 | > 100 | > 100 | 46.1 | > 100 | –
6 | O=C(CSc1ncccn1)N/N=C/c1ccccc1OCc1ccccc1 | 70.4 | > 100 | 95.1 | 65.1 | 79.2 | 47.5 | 96.7 | 67.7 | > 100 | 55.1 | 43.9 | > 100 | 83.1 | > 100 | > 100 | > 100 | 78.3 | 43.6
7 | O=C1CSC(c2ccccc2)N1c1nc2cc3sc(N4C(=O)CSC4c4ccccc4)nc3cc2s1 (stereo not given) | > 100 | > 100 | > 100 | > 100 | > 100 | > 100 | > 100 | > 92.3 | > 100 | > 96.6 | > 100 | > 100 | > 100 | > 100 | > 100 | > 100 | > 100 | > 100
8 | CSC1=N/C(=C\c2ccc(C)cc2)C(=O)N1 | > 100 | > 100 | > 100 | > 100 | > 100 | > 100 | > 100 | > 100 | > 100 | > 100 | > 100 | > 100 | > 100 | > 100 | > 100 | > 100 | > 100 | > 100
9 | Cc1sc2nc(N(C)C)oc(=O)c2c1C | 49.1 | > 100 | > 100 | > 100 | > 100 | > 100 | > 100 | > 100 | > 100 | > 100 | > 100 | > 100 | > 100 | > 100 | > 100 | > 100 | > 100 | > 100
10 | C=CC(C)(C)n1cc(C2=C3OC(=O)C(c4cn(C(C)(C)C=C)c5ccccc45)=C3OC2=O)c2ccccc21 | > 100 | > 100 | > 100 | > 100 | > 100 | > 100 | > 100 | > 100 | > 100 | > 100 | > 100 | > 100 | > 100 | > 100 | > 100 | > 100 | > 100 | > 100
11 | CC1=NN(c2cccc(S(=O)(=O)O)c2)C2(C1)C(Cl)C(=O)N2c1nc2ccccc2s1 (stereo not given) | 18.7 | 22.9 | 28.5 | 17.8 | 3.99 | 7.16 | 25.2 | 13.1 | 28.1 | 22.2 | 25 | 24.6 | 26.7 | 27 | 8.27 | 8.48 | 9.95 | 4.47
12 | C[C@]12CC[C@H]3[C@@H](CCC4=CC(=O)CC[C@@H]43)[C@@H]1CC[C@]2(O)C(N)=O | > 100 | > 100 | > 100 | > 100 | > 100 | > 100 | > 100 | > 100 | > 100 | > 100 | > 100 | > 100 | > 100 | > 100 | > 100 | – | > 100 | > 100
13 | O=C1c2c(Br)sc(Br)c2C(NC(=O)C(F)(F)F)C1O (stereo not given) | 34.9 | > 100 | 32.6 | 33.6 | 27.3 | > 100 | 39.4 | > 100 | 39.6 | 79.8 | 45.3 | 48.2 | 39.5 | 56.4 | 56.7 | 31.4 | 35.9 | –
